The text below walks through data of US9440963B2, “Compositions, formulations and methods for treating ocular diseases” (Aerpio Therapeutics Inc., priority 2013, dated 2016).

Molecules are shown by their SMILES. ≈ marks a conversion by molar mass, not a printed value. Where “and” joins values, the source holds several entries; their conditions need not be identical. Identical values can stand only once. Like-named read-outs stand apart in the source and are kept apart here.

For data set [1], the system named is human subjects with visual acuity loss due to diabetic macular edema. The data set can be described thus: Central foveal/retinal thickness by ocular coherence tomography in diabetic macular edema study (Example 35). In kind it is in vivo. How it is done: At any time during the course of the study, investigators could administer additional therapy consisting of intravitreal injection of an anti-VEGF agent, for example, ranibizumab, bevacizumab and/or aflibercept, if considered by the investigator to be medically necessary. Retinal thickness as measured by ocular coherence tomography and best corrected visual acuity as measured by a standard vision test (ETDRS) were assessed at regular intervals during the 28 day active treatment phase and through the 2 month post-treatment observation phase, (Screening, Day 1 [baseline], Day 7, Day 14, Day 21, Day 28, Day 42, Day 56 and Day 84). The main efficacy outcomes for the study were change in CRT and visual acuity over time with treatment. […] The mean change in Central Foveal Thickness was −289 μm, approximately double the reduction seen after ranibizumab injection in the study in FIG. 1. FIG. 5 represents the results of a single patient. The eye having the greater Central Foveal Thickness was chosen as the Study Eye. […] At week 3 (21 days, indicated by arrow) the fellow eye was treated with 0.5 mg of ranibizumab by injection. At week 6 (42 days, indicated by arrow) the treated eye was treated with 0.5 mg of ranibizumab. […] As a result, there was a pronounced reduction in CFT in the study eye from day 21 to day 28 (approximately 250 µm). […] At week 6, the study eye was treated with an intravitreal injection of 0.5 mg of ranibizumab. […] Compared to the study depicted in FIG. 1 wherein the average change in CFT at one month after ranibizumab injection was approximately […], the combination disclosed method provided substantially greater reductions at 2-4 weeks following ranibizumab injection. FIG. 6 represents the results of a single patient. The eye having the greater Central Foveal Thickness was chosen as the Study Eye. […] At week 4 (28 days, indicated by arrow) the fellow eye was rescued with 2 mg of aflibercept. […] At week 6 (42 days, indicated by arrow) the study eye was rescued with 2 mg of aflibercept. […] Unlike the results depicted for the ranibizumab protocol, there was no evidence of systemically delivered aflibercept to the Fellow Eye.

Data set [2] can be described thus: Room temperature aqueous solubility with solubilizing agents (Example 36). In kind it is physicochemical. From the text: The room temperature aqueous solubility (mg/mL) of the a compound (4-{(S)-2-[(S)-2-methoxycarbonylamino)-3-phenylpropanamido]-2-[2-(thiophen-2-yl)thiazol-4-yl]ethyl}phenylsulfamic acid) in water, HPβCD, Poloxamer 407, and sulfobutylether-β-cyclodextrin, is provided in TABLE XXVII. Solubility in saline for the test compound is reduced presumably due to the common ion effect.
The solubility (mg/mL) of the test compound in mixtures of HPβCD and PEG400 is illustrated in TABLE XXVIII.

[3] abbreviates: aqueous with cosolvent or surfactant or cyclodextrin, Solubility.

As for `COC(=O)N[C@@H](Cc1ccccc1)C(=O)N[C@@H](Cc1ccc(NS(=O)(=O)O)cc1)c1csc(-c2cccs2)n1`, the “Central Foveal Reduction, single patient eye” value in data set [1] (5 mg subcutaneously twice daily for 28 days, subsequently ranibizumab (0.3 or 0.5 mg) or aflibercept (2 mg) intravitreal, 14-28 days post ranibizumab or aflibercept, 7 eyes) is 50-100 μm and 150-200 μm and 200-250 μm and 300-350 μm and 350-400 μm and 450-500 μm. The “fall of Central Foveal Thickness of the fellow eye” value in data set [1] (single patient (FIG. 5), 5 mg s.c. twice daily from day one, fellow eye 0.5 mg ranibizumab at week 3, by week 4 (28 days)) came out at 350 μm. For the same compound, the “overall reduction in CFT of the study eye” value in data set [1] (single patient (FIG. 5), by week 8, after 0.5 mg ranibizumab at week 6) is listed as “approximately 500 μm”. Also, the “reduction in CFT in the study eye” value in data set [1] (single patient (FIG. 5), from day 21 to day 28) is “approximately 250 µm”. Also, in data set [1] (single patient (FIG. 6)), the “reduction of CFT in the non-treated eye from onset of the study” value is listed as around 280 μm and the “reduction of CFT in the study eye from onset of the study” value was “approximately 300 μm”. Also, in data set [1] (single patient (FIG. 6), 5 mg s.c. twice daily from day one, fellow eye rescued with 2 mg aflibercept at week 4), the “CFT reduction of the Fellow eye after rescue” value is “approximately 400 μm”. Further, the “CFT reduction of the Study eye after rescue” value in data set [1] (single patient (FIG. 6), study eye rescued with 2 mg aflibercept at week 6) is “approximately 300 μm”. Besides, the solubility in saline result in data set [2] (room temperature, compared with water) is reported as “reduced”.

As for `COC(=O)N[C@@H](Cc1ccccc1)C(=O)N[C@@H](Cc1ccc(NS(=O)(=O)O)cc1)c1nc(-c2cccs2)cs1`, the Solubility (commonly how much of the substance goes into solution per volume) in data set [2] (setting [3]) is 42 mg/mL (≈ 71.6 mM); in data set [2] (water, Solubility), 38 mg/mL (≈ 64.8 mM).

With `CCc1csc([C@H](Cc2ccc(NS(=O)(=O)O)cc2)NC(=O)[C@H](Cc2ccccc2)NC(=O)OC)n1`, the Solubility in data set [2] was determined as 89 mg/mL (≈ 167 mM); in data set [2] (setting [3]), 60 mg/mL (≈ 113 mM); in data set [2] (water, Solubility) it was 45 mg/mL (≈ 84.5 mM).
